Reference: patent US9023398B2, “Method for improving the aqueous solubility of poorly-soluble substances” (Kabushiki Kaisha Sangi, priority 2009, dated 2015)

How the values were obtained:
[1] = Protocol: The rotation number of the stirrer was 120 rpm, and all of the tests were conducted in a thermostat at 37±0.5° C. Two types of test solutions, namely, distilled water and 2nd fluid for disintegration test (pH 6.8) of the Japanese Pharmacopoeia were used. As such 2nd fluid for disintegration test of the Japanese Pharmacopoeia, a solution prepared by diluting the 10-fold concentration solution of Kanto Kagaku Co., Ltd. with distilled water was used.
A comparative test was carried out in the same manner as that described above with the exception that a poorly-soluble substance or the like was used in an amount equal to that of a substance with improved aqueous solubility, instead of the substance with improved aqueous solubility.
1 mL of the solution was sampled in an Eppendorf centrifuge tube, 1, 3, 10, 30, 60, 180 and 360 minutes after initiation of the test. The thus sampled solution was centrifuged at 12,000 rpm for 5 minutes. […] In the case of the comparative test, the poorly-soluble substance or the like, which had not been dissolved in the solution, was removed. An aliquot of this supernatant was immediately frozen. The frozen sample was freeze-dried, and it was then used as a sample in the measurement of the amount of the substance with improved aqueous solubility, which had been dissolved in the test solution. The dissolved poorly-soluble substance was measured mainly using a dual wavelength absorption photometer.
Moreover, a comparative test was carried out using silica fume instead of the calcium compound microparticles. Specifically, a coating treatment was carried out according to the same method as that described in the above section “6-1.

[2] = Dissolution test of poorly-soluble substances using 2nd fluid for disintegration test (pH 6.8) of the Japanese Pharmacopoeia; format: physicochemical; conditions: 2nd fluid for disintegration test
Protocol: From initiation of the test, the mixed solution was stirred with a stirrer having a length of 15 mm. The rotation number of the stirrer was 120 rpm, and all of the tests were conducted in a thermostat at 37±0.5° C. Two types of test solutions, namely, distilled water and 2nd fluid for disintegration test (pH 6.8) of the Japanese Pharmacopoeia were used. As such 2nd fluid for disintegration test of the Japanese Pharmacopoeia, a solution prepared by diluting the 10-fold concentration solution of Kanto Kagaku Co., Ltd. with distilled water was used.

[3] = Dissolution test of poorly-soluble substances using distilled water; format: physicochemical; conditions: water
[4] = Gliclazide, elution time 30 min
[5] = Gliclazide, elution time 120 min
[6] = Gliclazide, elution time 360 min
[7] = Metoclopramide, elution time 3 min
[8] = Metoclopramide, elution time 30 min
[9] = Metoclopramide, elution time 360 min
[10] = Spironolactone, elution time 3 min
[11] = Spironolactone, elution time 10 min
[12] = Spironolactone, elution time 30 min
[13] = Spironolactone, elution time 120 min
[14] = Spironolactone, elution time 360 min
[15] = Probenecid, elution time 10 min
[16] = Probenecid, elution time 30 min
[17] = Probenecid, elution time 120 min
[18] = Probenecid, elution time 360 min
[19] = Allopurinol, elution time 3 min
[20] = Allopurinol, elution time 10 min
[21] = Allopurinol, elution time 30 min
[22] = Allopurinol, elution time 120 min
[23] = Allopurinol, elution time 360 min
[24] = Prednisolone, elution time 10 min
[25] = Prednisolone, elution time 30 min
[26] = Prednisolone, elution time 120 min
[27] = Prednisolone, elution time 360 min
[28] = Estradiol Enanthate, elution time 3 min
[29] = Estradiol Enanthate, elution time 30 min
[30] = Estradiol Enanthate, elution time 120 min
[31] = Estradiol Enanthate, elution time 360 min
[32] = Haloperidol, elution time 3 min
[33] = Haloperidol, elution time 10 min
[34] = Haloperidol, elution time 360 min
[35] = Carvedilol, elution time 10 min
[36] = Carvedilol, elution time 30 min
[37] = Carvedilol, elution time 120 min
[38] = Carvedilol, elution time 360 min

N[C@@H](CSCC(=O)O)C(=O)O [L-carbocysteine]
solubility-improving effect [1]: a solubility-improving effect was obtained

Clc1ccc2c(c1)C(N1CCNCC1)=Nc1ccccc1O2 [amoxapine]
solubility-improving effect [1]: a solubility-improving effect was obtained

OCCN(CCO)c1nc(N2CCCCC2)c2nc(N(CCO)CCO)nc(N3CCCCC3)c2n1 [compound 31, Dipyridamole]
Dissolved amount ([2]; Dipyridamole, elution time 3 min): 6.5 µg/mL | Dissolved amount ([2]; Dipyridamole, elution time 10 min): 6.5 µg/mL | Dissolved amount ([2]; Dipyridamole, elution time 30 min): 8.3 µg/mL | Dissolved amount ([2]; Dipyridamole, elution time 120 min): 8.5 µg/mL | Dissolved amount ([2]; Dipyridamole, elution time 360 min): 9.2 µg/mL | Dissolved amount ([3]; elution time 3 min): 7.8 µg/mL | Dissolved amount ([3]; elution time 10 min): 7.9 µg/mL | Dissolved amount ([3]; elution time 30 min): 8.0 µg/mL | Dissolved amount ([3]; elution time 120 min): 8.5 µg/mL | Dissolved amount ([3]; elution time 360 min): 8.2 µg/mL

Cc1ccc(S(=O)(=O)NC(=O)NN2CC3CCCC3C2)cc1 (centres unmarked) [compound 32, Gliclazide]
Dissolved amount ([2]; Gliclazide, elution time 3 min): 80.1 µg/mL | Dissolved amount [2, 4]: 296.1 µg/mL | Dissolved amount [2, 5]: 420.2 µg/mL | Dissolved amount [2, 6]: 429.4 µg/mL | Dissolved amount ([3]; Gliclazide, elution time 3 min): 11.1 µg/mL | Dissolved amount ([3]; Gliclazide, elution time 10 min): 26.3 µg/mL | Dissolved amount [3, 4]: 35.4 µg/mL | Dissolved amount [3, 5]: 38.8 µg/mL | Dissolved amount [3, 6]: 39.3 µg/mL

CCN(CC)CCNC(=O)c1cc(Cl)c(N)cc1OC [compound 33, Metoclopramide]
Dissolved amount [2, 7]: 12420.8 µg/mL | Dissolved amount [2, 8]: 13285.5 µg/mL | Dissolved amount [2, 9]: 13564.1 µg/mL | Dissolved amount [3, 7]: 6159.5 µg/mL | Dissolved amount ([3]; Metoclopramide, elution time 10 min): 5382.3 µg/mL | Dissolved amount [3, 8]: 5437.6 µg/mL | Dissolved amount ([3]; Metoclopramide, elution time 120 min): 5478.0 µg/mL | Dissolved amount [3, 9]: 5654.9 µg/mL

CC(=O)S[C@@H]1CC2=CC(=O)CC[C@]2(C)[C@H]2CC[C@@]3(C)[C@@H](CC[C@@]34CCC(=O)O4)[C@H]12 [compound 34, Spironolactone]
Dissolved amount [2, 10]: 71.0 µg/mL | Dissolved amount [2, 11]: 85.6 µg/mL | Dissolved amount [2, 12]: 89.3 µg/mL | Dissolved amount [2, 13]: 92.0 µg/mL | Dissolved amount [2, 14]: 93.7 µg/mL | Dissolved amount [3, 10]: 29.6 µg/mL | Dissolved amount [3, 11]: 31.9 µg/mL | Dissolved amount [3, 12]: 33.7 µg/mL | Dissolved amount [3, 13]: 39.7 µg/mL | Dissolved amount [3, 14]: 35.2 µg/mL

CCCN(CCC)S(=O)(=O)c1ccc(C(=O)O)cc1 [compound 38, Probenecid]
Dissolved amount ([2]; Probenecid, elution time 3 min): 386.2 µg/mL | Dissolved amount [2, 15]: 1107.2 µg/mL | Dissolved amount [2, 16]: 1315.0 µg/mL | Dissolved amount [2, 17]: 2619.5 µg/mL | Dissolved amount [2, 18]: 3715.9 µg/mL | Dissolved amount ([3]; Probenecid, elution time 3 min): 10.7 µg/mL | Dissolved amount [3, 15]: 22.7 µg/mL | Dissolved amount [3, 16]: 33.4 µg/mL | Dissolved amount [3, 17]: 39.8 µg/mL | Dissolved amount [3, 18]: 37.5 µg/mL

Oc1ncnc2[nH]ncc12 [compound 39, Allopurinol]
Dissolved amount [2, 19]: 565.4 µg/mL | Dissolved amount [2, 20]: 672.6 µg/mL | Dissolved amount [2, 21]: 725.7 µg/mL | Dissolved amount [2, 22]: 722.8 µg/mL | Dissolved amount [2, 23]: 696.1 µg/mL | Dissolved amount [3, 19]: 578.2 µg/mL | Dissolved amount [3, 20]: 679.4 µg/mL | Dissolved amount [3, 21]: 773.9 µg/mL | Dissolved amount [3, 22]: 741.5 µg/mL | Dissolved amount [3, 23]: 712.5 µg/mL

C[C@]12C=CC(=O)C=C1CC[C@@H]1[C@@H]2[C@@H](O)C[C@@]2(C)[C@H]1CC[C@]2(O)C(=O)CO [compound 41, Prednisolone]
Dissolved amount ([2]; Prednisolone, elution time 3 min): 369.1 µg/mL | Dissolved amount [2, 24]: 382.4 µg/mL | Dissolved amount [2, 25]: 310.8 µg/mL | Dissolved amount [2, 26]: 265.5 µg/mL | Dissolved amount [2, 27]: 257.9 µg/mL | Dissolved amount [3, 24]: 336.3 µg/mL | Dissolved amount [3, 25]: 315.8 µg/mL | Dissolved amount [3, 26]: 268.2 µg/mL | Dissolved amount [3, 27]: 266.3 µg/mL

CC(C)NCC(O)COc1cccc2[nH]ccc12 (centres unmarked) [compound 42, Pindolol]
Dissolved amount ([2]; Pindolol, elution time 3 min): 1394.9 µg/mL | Dissolved amount ([2]; Pindolol, elution time 10 min): 2837.9 µg/mL | Dissolved amount ([2]; Pindolol, elution time 30 min): 3212.1 µg/mL | Dissolved amount ([2]; Pindolol, elution time 120 min): 3624.7 µg/mL | Dissolved amount ([3]; Pindolol, elution time 3 min): 53.1 µg/mL | Dissolved amount ([3]; Pindolol, elution time 10 min): 71.1 µg/mL | Dissolved amount ([3]; Pindolol, elution time 30 min): 77.8 µg/mL | Dissolved amount ([3]; Pindolol, elution time 120 min): 93.5 µg/mL | Dissolved amount ([3]; Pindolol, elution time 360 min): 93.6 µg/mL

CCCCCCC(=O)O[C@H]1CC[C@H]2[C@@H]3CCc4cc(O)ccc4[C@H]3CC[C@]12C [compound 44, Estradiol Enanthate]
Dissolved amount [2, 28]: 7.9 µg/mL | Dissolved amount [2, 29]: 7.0 µg/mL | Dissolved amount [2, 30]: 19.0 µg/mL | Dissolved amount [2, 31]: 10.9 µg/mL | Dissolved amount [3, 28]: 1.6 µg/mL | Dissolved amount ([3]; Estradiol Enanthate, elution time 10 min): 1.4 µg/mL | Dissolved amount [3, 29]: 1.8 µg/mL | Dissolved amount [3, 30]: 1.6 µg/mL | Dissolved amount [3, 31]: 1.3 µg/mL

Nc1ncnc2nc[nH]c12 [compound 45, Adenine]
Dissolved amount ([2]; Adenine, elution time 3 min): 1752.2 µg/mL | Dissolved amount ([2]; Adenine, elution time 10 min): 2028.0 µg/mL | Dissolved amount ([2]; Adenine, elution time 30 min): 2001.9 µg/mL | Dissolved amount ([2]; Adenine, elution time 120 min): 2001.4 µg/mL | Dissolved amount ([2]; Adenine, elution time 360 min): 1876.8 µg/mL | Dissolved amount ([3]; Adenine, elution time 3 min): 1478.0 µg/mL | Dissolved amount ([3]; Adenine, elution time 10 min): 1557.3 µg/mL | Dissolved amount ([3]; Adenine, elution time 30 min): 1646.6 µg/mL | Dissolved amount ([3]; Adenine, elution time 360 min): 1696.4 µg/mL

O=C(CCCN1CCC(O)(c2ccc(Cl)cc2)CC1)c1ccc(F)cc1 [compound 46, Haloperidol]
Dissolved amount [2, 32]: 23.9 µg/mL | Dissolved amount [2, 33]: 35.6 µg/mL | Dissolved amount ([2]; Haloperidol, elution time 120 min): 50.1 µg/mL | Dissolved amount [2, 34]: 48.9 µg/mL | Dissolved amount [3, 32]: 8.2 µg/mL | Dissolved amount [3, 33]: 10.0 µg/mL | Dissolved amount ([3]; Haloperidol, elution time 30 min): 11.3 µg/mL | Dissolved amount [3, 34]: 13.1 µg/mL

COc1ccccc1OCCNCC(O)COc1cccc2[nH]c3ccccc3c12 (centres unmarked) [compound 49, Carvedilol]
Dissolved amount ([2]; Carvedilol, elution time 3 min): 13.9 µg/mL | Dissolved amount [2, 35]: 26.3 µg/mL | Dissolved amount [2, 36]: 48.6 µg/mL | Dissolved amount [2, 37]: 44.1 µg/mL | Dissolved amount [2, 38]: 45.1 µg/mL | Dissolved amount ([3]; Carvedilol, elution time 3 min): 5.2 µg/mL | Dissolved amount [3, 35]: 8.3 µg/mL | Dissolved amount [3, 36]: 10.0 µg/mL | Dissolved amount [3, 37]: 15.0 µg/mL | Dissolved amount [3, 38]: 16.0 µg/mL
